Where a SMILES comes first, the peptide text is derived from it. Bridges are numbered along the chain shown (N, C = ends). [ ]: non-standard residue; d: D form. The star is where a group is joined. d(aIle) = CC[C@H](C)[C@@H](N)C(=O)O; d(aThr) = C[C@@H](O)[C@@H](N)C(=O)O; Hexanoyl(5-Me) = CC(C)CCCC(=O)*; Orn = NCCC[C@H](N)C(=O)O; Dhb = C/C=C(\N)C(=O)O
Experiments:
Assay type in all cases: cell-based, human
A-549 = assay: SRB colorimetric assay of cell growth and viability, A-549; details: 48 hours exposure; for GI50: read-out: GI50 A-549; for CC50: read-out: LC50 A-549
SK-MEL-28 = assay: SRB colorimetric assay of cell growth and viability, SK-MEL-28; details: 48 hours exposure; for CC50: read-out: LC50 MEL-28
HT-29 = assay: SRB colorimetric assay of cell growth and viability, HT-29; details: 48 hours exposure; for GI50: read-out: GI50 HT-29; for CC50: read-out: LC50 HT-29
LoVo = assay: SRB colorimetric assay of cell growth and viability, LoVo; details: 48 hours exposure; for CC50: read-out: LC50 LOVO
DU-145 = assay: SRB colorimetric assay of cell growth and viability, DU-145; details: 48 hours exposure
LNCaP = assay: SRB colorimetric assay of cell growth and viability, LNCaP; details: 48 hours exposure; for GI50: read-out: GI50 LN-caP; for CC50: read-out: LC50 LN-caP
SK-BR-3 = assay: SRB colorimetric assay of cell growth and viability, SK-BR-3; details: 48 hours exposure
IGROV-1 = assay: SRB colorimetric assay of cell growth and viability, IGROV-1; details: 48 hours exposure
IGROV-ET = assay: SRB colorimetric assay of cell growth and viability, IGROV-ET; details: 48 hours exposure; for CC50: read-out: LC50 IGROV-ET
HeLa = assay: SRB colorimetric assay of cell growth and viability, HeLa; details: 48 hours exposure; for CC50: read-out: LC50 HELA
HeLa-APL = assay: SRB colorimetric assay of cell growth and viability, HeLa-APL; details: 48 hours exposure; for CC50: read-out: LC50 HELA-APL
K-562 = assay: SRB colorimetric assay of cell growth and viability, K-562; details: 48 hours exposure; for CC50: read-out: LC50 K-562
PANC-1 = assay: SRB colorimetric assay of cell growth and viability, PANC-1; details: 48 hours exposure; for CC50: read-out: LC50 PANC-1

C/C=C1\NC(=O)[C@H](Cc2ccccc2)NC(=O)[C@@H](C(C)C)NC(=O)[C@@H]([C@@H](C)CC)NC(=O)[C@H](NC(=O)[C@H](NC(=O)[C@H](CCCN)NC(=O)[C@H]2CCCN2C(=O)[C@H](NC(=O)[C@@H](NC(=O)[C@@H](NC(=O)[C@H](NC(=O)CCCNC(=N)N)C(C)C)[C@@H](C)O)C(C)C)C(C)C)[C@@H](C)CC)[C@@H](C)OC(=O)[C@H](C(C)C)NC1=O [Compound 29, [4-GuBut^14]-KF]
TGI A-549 (A-549): 6.70E−06 Molar
GI50 (A-549): 6.7 µM
CC50 (A-549): 6.7 µM
GI50 (SK-MEL-28): 6.7 µM
TGI MEL-28 (SK-MEL-28): 6.70E−06 Molar
CC50 (SK-MEL-28): 6.7 µM
TGI HT-29 (HT-29): 6.70E−06 Molar
GI50 (HT-29): 6.7 µM
CC50 (HT-29): 6.7 µM
GI50 (LoVo): 5.45 µM
TGI LOVO (LoVo): 6.70E−06 Molar
CC50 (LoVo): 6.7 µM
GI50 (DU-145): 6.7 µM
LC50 (concentration causing 50% net cell kill) (DU-145): 6.7 µM
TGI DU-145 (DU-145): 6.70E−06 Molar
TGI LN-caP (LNCaP): 6.70E−06 Molar
GI50 (LNCaP): 3.91 µM
CC50 (LNCaP): 6.7 µM
GI50 (SK-BR-3): 6.7 µM
LC50 (SK-BR-3): 6.7 µM
TGI SK-BR-3 (SK-BR-3): 6.70E−06 Molar
GI50 (IGROV-1): 6.7 µM
LC50 (concentration causing 50% net cell killing) (IGROV-1): 6.7 µM
TGI IGROV (IGROV-1): 6.70E−06 Molar
GI50 (IGROV-ET): 6.7 µM
TGI IGROV-ET (IGROV-ET): 6.70E−06 Molar
CC50 (IGROV-ET): 6.7 µM
GI50 (HeLa): 6.7 µM
TGI HELA (HeLa): 6.70E−06 Molar
CC50 (HeLa): 6.7 µM
GI50 (HeLa-APL): 6.7 µM
TGI HELA-APL (HeLa-APL): 6.70E−06 Molar
CC50 (HeLa-APL): 6.7 µM
GI50 (K-562): 6.7 µM
TGI K-562 (K-562): 6.70E−06 Molar
CC50 (K-562): 6.7 µM
GI50 (PANC-1): 6.7 µM
TGI PANC-1 (PANC-1): 6.70E−06 Molar
CC50 (PANC-1): 6.7 µM

C/C=C1\NC(=O)[C@H](Cc2ccccc2)NC(=O)[C@@H](C(C)C)NC(=O)[C@@H]([C@@H](C)CC)NC(=O)[C@H](NC(=O)[C@H](NC(=O)[C@H](CCCN)NC(=O)[C@H]2CCCN2C(=O)[C@H](NC(=O)CNC(=O)[C@@H](NC(=O)[C@H](NC(=O)CCCC(C)C)C(C)C)[C@@H](C)O)C(C)C)[C@@H](C)CC)[C@@H](C)OC(=O)[C@H](C(C)C)NC1=O [Compound 42, [Gly^11]-KF] ({Hexanoyl(5-Me)}-[dV]TG[dV][dP][Orn][d(aIle)][d(aThr)][d(aIle)][dV]F[Dhb]V; ester 8-C)
TGI A-549 (A-549): 6.96E−06 Molar
GI50 (A-549): 6.96 µM
CC50 (A-549): 6.96 µM
GI50 (SK-MEL-28): 6.96 µM
TGI MEL-28 (SK-MEL-28): 6.96E−06 Molar
CC50 (SK-MEL-28): 6.96 µM
TGI HT-29 (HT-29): 6.96E−06 Molar
GI50 (HT-29): 6.96 µM
CC50 (HT-29): 6.96 µM
GI50 (LoVo): 3.87 µM
TGI LOVO (LoVo): 6.96E−06 Molar
CC50 (LoVo): 6.96 µM
GI50 (DU-145): 6.96 µM
LC50 (concentration causing 50% net cell kill) (DU-145): 6.96 µM
TGI DU-145 (DU-145): 6.96E−06 Molar
TGI LN-caP (LNCaP): 6.96E−06 Molar
GI50 (LNCaP): 3.03 µM
CC50 (LNCaP): 6.96 µM
GI50 (SK-BR-3): 6.96 µM
LC50 (SK-BR-3): 6.96 µM
TGI SK-BR-3 (SK-BR-3): 6.96E−06 Molar
GI50 (IGROV-1): 4.61 µM
LC50 (concentration causing 50% net cell killing) (IGROV-1): 6.96 µM
TGI IGROV (IGROV-1): 6.96E−06 Molar
GI50 (IGROV-ET): 6.96 µM
TGI IGROV-ET (IGROV-ET): 6.96E−06 Molar
CC50 (IGROV-ET): 6.96 µM
GI50 (HeLa): 6.96 µM
TGI HELA (HeLa): 6.96E−06 Molar
CC50 (HeLa): 6.96 µM
GI50 (HeLa-APL): 6.96 µM
TGI HELA-APL (HeLa-APL): 6.96E−06 Molar
CC50 (HeLa-APL): 6.96 µM
GI50 (K-562): 1.82 µM
TGI K-562 (K-562): 4.37E−06 Molar
CC50 (K-562): 6.96 µM
GI50 (PANC-1): 5.08 µM
TGI PANC-1 (PANC-1): 6.96E−06 Molar
CC50 (PANC-1): 6.96 µM

C/C=C1\NC(=O)[C@H](Cc2ccccc2)NC(=O)[C@@H](C(C)C)NC(=O)[C@@H]([C@@H](C)CC)NC(=O)[C@H](NC(=O)[C@H](NC(=O)[C@H](CCCN)NC(=O)[C@H]2CCCN2C(=O)[C@H](NC(=O)[C@H](Cc2ccccc2)NC(=O)[C@@H](NC(=O)[C@H](NC(=O)CCCC(C)C)C(C)C)[C@@H](C)O)C(C)C)[C@@H](C)CC)[C@@H](C)OC(=O)[C@H](C(C)C)NC1=O [Compound 43, [Phe^11]-KF] ({Hexanoyl(5-Me)}-[dV]TF[dV][dP][Orn][d(aIle)][d(aThr)][d(aIle)][dV]F[Dhb]V; ester 8-C)
TGI A-549 (A-549): 1.40E−06 Molar
GI50 (A-549): 0.521 µM
CC50 (A-549): 3.41 µM
GI50 (SK-MEL-28): 0.78 µM
TGI MEL-28 (SK-MEL-28): 1.66E−06 Molar
CC50 (SK-MEL-28): 3.57 µM
TGI HT-29 (HT-29): 2.73E−07 Molar
GI50 (HT-29): 0.141 µM
CC50 (HT-29): 0.531 µM
GI50 (LoVo): 0.105 µM
TGI LOVO (LoVo): 2.22E−07 Molar
CC50 (LoVo): 0.471 µM
GI50 (DU-145): 0.476 µM
LC50 (concentration causing 50% net cell kill) (DU-145): 3.22 µM
TGI DU-145 (DU-145): 1.34E−06 Molar
TGI LN-caP (LNCaP): 1.97E−06 Molar
GI50 (LNCaP): 0.852 µM
CC50 (LNCaP): 4.55 µM
GI50 (SK-BR-3): 0.119 µM
LC50 (SK-BR-3): 0.634 µM
TGI SK-BR-3 (SK-BR-3): 2.75E−07 Molar
GI50 (IGROV-1): 0.241 µM
LC50 (concentration causing 50% net cell killing) (IGROV-1): 3.68 µM
TGI IGROV (IGROV-1): 7.67E−07 Molar
GI50 (IGROV-ET): 0.233 µM
TGI IGROV-ET (IGROV-ET): 6.28E−07 Molar
CC50 (IGROV-ET): 2.53 µM
GI50 (HeLa): 0.397 µM
TGI HELA (HeLa): 1.32E−06 Molar
CC50 (HeLa): 3.95 µM
GI50 (HeLa-APL): 0.793 µM
TGI HELA-APL (HeLa-APL): 1.77E−06 Molar
CC50 (HeLa-APL): 3.93 µM
GI50 (K-562): 1.23 µM
TGI K-562 (K-562): 2.18E−06 Molar
CC50 (K-562): 3.85 µM
GI50 (PANC-1): 1.79 µM
TGI PANC-1 (PANC-1): 4.86E−06 Molar
CC50 (PANC-1): 6.55 µM

C/C=C1\NC(=O)[C@H](Cc2ccccc2)NC(=O)[C@@H](C(C)C)NC(=O)[C@@H]([C@@H](C)CC)NC(=O)[C@H](NC(=O)[C@H](NC(=O)[C@H](CCCN)NC(=O)[C@H]2CCCN2C(=O)[C@H](NC(=O)[C@H](C)NC(=O)[C@@H](NC(=O)[C@H](NC(=O)CCCC(C)C)C(C)C)[C@@H](C)O)C(C)C)[C@@H](C)CC)[C@@H](C)OC(=O)[C@H](C(C)C)NC1=O [Compound 44, [Ala^11]-KF] ({Hexanoyl(5-Me)}-[dV]TA[dV][dP][Orn][d(aIle)][d(aThr)][d(aIle)][dV]F[Dhb]V; ester 8-C)
TGI A-549 (A-549): 6.90E−06 Molar
GI50 (A-549): 2.69 µM
CC50 (A-549): 6.9 µM
GI50 (SK-MEL-28): 3.69 µM
TGI MEL-28 (SK-MEL-28): 6.90E−06 Molar
CC50 (SK-MEL-28): 6.9 µM
TGI HT-29 (HT-29): 2.61E−06 Molar
GI50 (HT-29): 1.34 µM
CC50 (HT-29): 5.08 µM
GI50 (LoVo): 0.973 µM
TGI LOVO (LoVo): 2.03E−06 Molar
CC50 (LoVo): 4.23 µM
GI50 (DU-145): 3.03 µM
LC50 (concentration causing 50% net cell kill) (DU-145): 6.9 µM
TGI DU-145 (DU-145): 6.90E−06 Molar
GI50 (LNCaP): 2.78 µM
CC50 (LNCaP): 6.9 µM
GI50 (SK-BR-3): 1.19 µM
LC50 (SK-BR-3): 5.3 µM
TGI SK-BR-3 (SK-BR-3): 2.52E−06 Molar
GI50 (IGROV-1): 1.43 µM
LC50 (concentration causing 50% net cell killing) (IGROV-1): 5.72 µM
TGI IGROV (IGROV-1): 2.86E−06 Molar
GI50 (IGROV-ET): 1.5 µM
TGI IGROV-ET (IGROV-ET): 2.95E−06 Molar
CC50 (IGROV-ET): 5.77 µM
GI50 (HeLa): 2.85 µM
TGI HELA (HeLa): 6.90E−06 Molar
CC50 (HeLa): 6.9 µM
GI50 (HeLa-APL): 3.18 µM
TGI HELA-APL (HeLa-APL): 6.90E−06 Molar
CC50 (HeLa-APL): 6.9 µM
GI50 (K-562): 3.06 µM
TGI K-562 (K-562): 6.90E−06 Molar
CC50 (K-562): 6.9 µM
GI50 (PANC-1): 6.9 µM
TGI PANC-1 (PANC-1): 6.90E−06 Molar
CC50 (PANC-1): 6.9 µM
